# Columns and labels:
# [1] = system: NLRP3 inflammasome pathway (IL-1β); assay: PBMC assay: IL-1β release after LPS stimulation; assay type: cell-based; settings: human PBMCs, 100 ng/ml LPS for 6 hrs, MSD
# Procedure: The activity of a compound according to the present invention can be assessed by in vitro methods.
# (§1) Peripheral venous blood was collected from healthy individuals and human peripheral blood mononuclear cells (PBMCs) were isolated from blood by Ficoll-Histopaque (Sigma-Aldrich, A0561) density gradient centrifugation. After isolation, PBMCs were stored in liquid nitrogen for later use. Upon thawing, PBMC cell viability was determined in growth medium (RPMI media supplemented with 10% fetal bovine serum, 1% Pen-Strep and 1% L-glutamine). […] PBMCs were added at a density of 7.5×10^4 cells per well and incubated for 30 min in a 5% CO2 incubator at 37° C. LPS stimulation was performed by addition of 100 ng/ml LPS (final concentration, Invivogen, tlrl-smlps) for 6 hrs followed by collection of cellular supernatant and the analysis of IL-1β (μM) and TNF cytokines levels (μM) via MSD technology according to manufacturers' guidelines (MSD, K151A0H).
# TNF = assay: PBMC assay: TNF cytokine level after LPS stimulation; assay type: cell-based; settings: human PBMCs, 100 ng/ml LPS for 6 hrs, MSD, read-out: TNFα EC50
# Procedure: as §1
IC50 [1] [µM],EC50 (TNF) [µM],melting point [°C],Compound
0.4,12.5,238.2,CCn1nc(CC(=O)Nc2ccc3nncn3c2)c(=O)c2ccc(C(C)(C)F)cc21 [F-74]
0.52,14.6,256.8,CC(C)n1nc(CC(=O)Nc2ccc3nncn3c2)c(=O)c2ccc(C(C)(C)F)cc21 [F-75]
15.3,> 20,177.9,CC(C)n1nc(CC(=O)Nc2ccc(I)nn2)c(=O)c2ccc(C(F)(F)F)cc21 [F-85]
12.9,> 20,185.8,CC(C)n1nc(CC(=O)Nc2ccc(C3CC3)nn2)c(=O)c2ccc(C(F)(F)F)cc21 [F-86]
> 20,> 20,214.7,CC(C)n1nc(CC(=O)Nc2nc3ccccc3n2C)c(=O)c2ccc(C(F)(F)F)cc21 [F-91]
> 20,> 20,242.9,CC(C)n1nc(CC(=O)Nc2nc3ccc(C#N)cc3n2C)c(=O)c2ccc(C(F)(F)F)cc21 [F-92]
> 20,> 20,219.5,CC(C)n1nc(CC(=O)Nc2nc3ccc(Br)cc3n2C)c(=O)c2ccc(C(F)(F)F)cc21 [F-93]
> 20,> 20,217.3,Cc1ccc2c(c1)nc(NC(=O)Cc1nn(C(C)C)c3cc(C(F)(F)F)ccc3c1=O)n2C [F-94]
> 20,> 20,217.4,Cc1ccc2nc(NC(=O)Cc3nn(C(C)C)c4cc(C(F)(F)F)ccc4c3=O)n(C)c2c1 [F-95]
> 20,> 20,229.8,CC(C)n1nc(CC(=O)Nc2nc3ccc(F)cc3n2C)c(=O)c2ccc(Br)cc21 [F-96]
> 20,> 20,245.3,CC(C)n1nc(CC(=O)Nc2nc3cc(F)ccc3n2C)c(=O)c2ccc(Br)cc21 [F-97]
> 20,> 20,222.5,CC(C)n1nc(CC(=O)Nc2nc3cc(F)ccc3n2C)c(=O)c2ccc(C(F)(F)F)cc21 [F-98]
> 20,> 20,221.8,CC(C)n1nc(CC(=O)Nc2nc3ccc(F)cc3n2C)c(=O)c2ccc(C(F)(F)F)cc21 [F-99]
18.2,> 20,205.6,CC(C)n1nc(CC(=O)Nc2nc3ccccc3n2C)c(=O)c2ccc(Br)cc21 [F-100]
15,~16.5,243.8,CC(C)n1nc(CC(=O)Nc2nc3cc(C#N)ccc3n2C)c(=O)c2ccc(C(F)(F)F)cc21 [F-101]
2.48,> 20,199,CC(C)n1nc(CC(=O)Nc2nc3cc(Cl)ccc3o2)c(=O)c2ccc(Br)cc21 [F-104]

IC50 [1] [µM],EC50 (TNF) [µM],melting point [°C],Compound
1.45,> 20,280.2,CCn1nc(CC(=O)Nc2cn3cnnc3cn2)c(=O)c2ccc(C(F)(F)F)cc21 [F-106]
1.14,> 20,270.9,O=C(Cc1nn(C2CC2)c2cc(C(F)(F)F)ccc2c1=O)Nc1cn2cnnc2cn1 [F-107]
0.985,> 20,257.9,CC(F)(F)c1ccc2c(=O)c(CC(=O)Nc3cn4cnnc4cn3)nn(C3CC3)c2c1 [F-108]
0.9,> 20,187.4,CC(C)n1nc(CC(=O)Nc2nc3ccccc3o2)c(=O)c2ccc(C(F)(F)F)cc21 [F-110]
0.62,> 20,203.3,CC(C)n1nc(CC(=O)Nc2nc3ccccc3o2)c(=O)c2ccc(Br)cc21 [F-111]
0.513,> 20,277.2,O=C(Cc1nn(C2CC2)c2cc(Br)ccc2c1=O)Nc1cn2cnnc2cn1 [F-113]
0.33,> 20,259.7,CC(C)n1nc(CC(=O)Nc2nc3ncccn3n2)c(=O)c2ccc(C(F)(F)F)cc21 [F-114]
0.892,> 20,248.9,CC(C)n1nc(CC(=O)Nc2ccc3nnc(Cl)n3n2)c(=O)c2ccc(C(F)(F)F)cc21 [F-132]
1.03,14.1,136.4,CCn1nc(CC(=O)Nc2ccc3nncn3n2)c(=O)c2ccc(C3CCC3)cc21 [F-136]
0.21,> 20,215.7,O=C(Cc1nn(C2CC2)c2cc(C(F)(F)F)ccc2c1=O)Nc1ccc2nncn2n1 [F-139]
0.12,9.77,223,CCn1nc(CC(=O)Nc2ccc3nncn3n2)c(=O)c2ccc(C3CC3)cc21 [F-141]
0.077,4.32,214.1,CC(C)n1nc(CC(=O)Nc2ccc3nncn3n2)c(=O)c2ccc(C(C)(F)F)cc21 [F-145]
0.142,4.67,179.8,CCC(C)n1nc(CC(=O)Nc2ccc3nncn3n2)c(=O)c2ccc(C(F)(F)F)cc21 (stereo not drawn) [F-146]
0.051,2.34,188.2,CC(C)n1nc(CC(=O)Nc2ccc3nncn3n2)c(=O)c2ccc(C(C)(C)F)cc21 [F-147]
0.513,4.58,168.8,CC(C)n1nc(CC(=O)Nc2ccc3nncn3n2)c(=O)c2ccc(C3CCC3)cc21 [F-148]

# — US20230391756A1, “NEW COMPOUND” (JANSSEN PHARMACEUTICA NV, priority 2020, published 2023)
